BigSolDB 2.1

COc1cc(/C=C/C(=O)CC(=O)/C=C/c2ccc(O)c(OC)c2)ccc1O
solubility (mole fraction)
Conditions | 278.15 K | 283.15 K | 288.15 K | 293.15 K | 298.15 K | 303.15 K | 308.15 K | 313.15 K | 318.15 K | 323.15 K
in DMSO | 0.137 | 0.16 | 0.184 | 0.211 | 0.24 | 0.271 | 0.303 | 0.338 | 0.375 | 0.413
in THF | 0.113 | 0.134 | 0.157 | 0.183 | 0.211 | 0.239 | 0.27 | 0.302 | 0.336 | 0.371
in acetone | 0.00834 | 0.00986 | 0.0118 | 0.0138 | 0.0162 | 0.0189 | 0.022 | 0.0257 | 0.0298 | 0.0345
in acetonitrile | 0.00071 | 0.00083 | 0.00097 | 0.00113 | 0.00129 | 0.00149 | 0.00169 | 0.00194 | 0.00221 | 0.00253
in ethanol | 0.00041 | 0.00048 | 0.00056 | 0.00065 | 0.00075 | 0.00086 | 0.00098 | 0.00111 | 0.00127 | 0.00145
in ethyl acetate | 0.00176 | 0.00199 | 0.00227 | 0.00253 | 0.00285 | 0.00319 | 0.00357 | 0.00399 | 0.00447 | 0.00501
in isopropanol | 0.00156 | 0.00177 | 0.002 | 0.00226 | 0.00254 | 0.00285 | 0.00319 | 0.00356 | 0.00398 | 0.00444
in m-xylene | 0.00015 | 0.00018 | 0.00022 | 0.00026 | 0.00031 | 0.00036 | 0.00042 | 0.00049 | 0.00057 | 0.00066
in methanol | 0.00029 | 0.00033 | 0.00038 | 0.00044 | 0.0005 | 0.00057 | 0.00066 | 0.00075 | 0.00087 | 0.001
in n-butanol | 0.00049 | 0.00057 | 0.00066 | 0.00075 | 0.00086 | 0.00099 | 0.00114 | 0.00131 | 0.00151 | 0.00175
in n-heptane | 5e-05 | 9e-05 | 0.00013 | 0.00017 | 0.00022 | 0.00027 | 0.00032 | 0.00038 | 0.00044 | 0.00052
in n-hexane | 7e-05 | 0.00011 | 0.00015 | 0.00019 | 0.00024 | 0.00029 | 0.00035 | 0.00041 | 0.00048 | 0.00057
